In US20080009418A1, “Selective Inhibitors” (Alchemia LTD., priority 2004, published 2008):

Columns and labels:
Human δ-opioid (DOP) = target: T1, Human δ-opioid (DOP) (Homo sapiens, UniProt P41143); test: Radioligand binding, human δ-opioid (DOP) membranes, FlashPlate, [3H]-Bremazocine; details: compound at 10 μM; [3H]-Bremazocine
T1 construct: purchased Perkin Elmer Biosignal
How it was run: (§1)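 Cloned human receptor membranes were coated onto FlashPlate wells and incubated with radioligand and compound (added from a 0.5 mM DMSO daughter plate) for 1 hour at room temperature in the dark. Scintillation counting gave percent inhibition, with DMSO defining total and reference ligand defining non-specific binding.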

Human κ-Opioid (KOP) = target: T2, Human κ-Opioid (KOP) (Homo sapiens, UniProt P41145); test: Radioligand binding, human κ-opioid (KOP) membranes, filtration, [3H]-Diprenorphine; details: compound at 10 μM; [3H]-Diprenorphine
T2 construct: purchased Perkin Elmer Biosignal
T2 sequence (P41145 whole entry): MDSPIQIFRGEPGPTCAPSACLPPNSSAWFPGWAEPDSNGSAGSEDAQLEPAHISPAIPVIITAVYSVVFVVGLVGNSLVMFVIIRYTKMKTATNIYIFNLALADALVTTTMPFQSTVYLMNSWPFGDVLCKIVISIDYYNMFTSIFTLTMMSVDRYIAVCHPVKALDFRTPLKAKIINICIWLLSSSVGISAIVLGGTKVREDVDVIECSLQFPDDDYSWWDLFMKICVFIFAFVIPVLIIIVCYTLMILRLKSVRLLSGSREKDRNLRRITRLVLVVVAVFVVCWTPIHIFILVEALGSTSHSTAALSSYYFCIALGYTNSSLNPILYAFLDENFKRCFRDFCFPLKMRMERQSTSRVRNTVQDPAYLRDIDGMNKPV
How it was run: (§2)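 Membranes from cloned human receptors were incubated with compound and radioligand for 1 hour at room temperature. Bound ligand was collected on 0.3% PEI-soaked filters, washed with cold 50 mM Tris-HCl pH 7.4, and counted by scintillation. Percent inhibition was computed against DMSO totals and reference-ligand nonspecific wells.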

Human Melanocortin (MC3) = target: T3, Human Melanocortin (MC3) (Homo sapiens, UniProt P41968); test: Radioligand binding, human melanocortin MC3 membranes, FlashPlate, [125I]-NDP-αMSH; details: compound at 10 μM; [125I]-NDP-αMSH
T3 construct: purchased Perkin Elmer Biosignal
T3 sequence (P41968 whole entry): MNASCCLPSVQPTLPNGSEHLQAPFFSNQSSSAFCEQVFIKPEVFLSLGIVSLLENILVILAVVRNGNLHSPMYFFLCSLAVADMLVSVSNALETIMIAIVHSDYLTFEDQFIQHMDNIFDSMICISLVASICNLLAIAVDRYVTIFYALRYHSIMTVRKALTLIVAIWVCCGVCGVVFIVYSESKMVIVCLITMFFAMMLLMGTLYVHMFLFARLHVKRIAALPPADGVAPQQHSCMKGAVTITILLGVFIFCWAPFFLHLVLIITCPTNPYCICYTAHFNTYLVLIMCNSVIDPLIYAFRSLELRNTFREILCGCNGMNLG
How it was run: as §1

Human Melanocortin (MC4) = target: T4, Human Melanocortin (MC4) (Homo sapiens, UniProt P32245); test: Radioligand binding, human melanocortin MC4 membranes, FlashPlate, [125I]-NDP-αMSH; details: compound at 10 μM; [125I]-NDP-αMSH
T4 construct: purchased Perkin Elmer Biosignal
T4 sequence (P32245 whole entry): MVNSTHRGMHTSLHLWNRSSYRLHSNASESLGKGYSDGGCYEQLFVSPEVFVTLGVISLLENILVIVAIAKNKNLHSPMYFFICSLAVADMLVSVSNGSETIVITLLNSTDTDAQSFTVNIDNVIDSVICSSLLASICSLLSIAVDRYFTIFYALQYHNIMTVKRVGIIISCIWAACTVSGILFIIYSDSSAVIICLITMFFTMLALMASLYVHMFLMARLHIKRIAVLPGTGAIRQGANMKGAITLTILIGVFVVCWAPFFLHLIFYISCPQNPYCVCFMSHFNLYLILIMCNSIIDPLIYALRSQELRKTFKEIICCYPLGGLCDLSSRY
How it was run: as §1

Human melanocortin (MC5) = target: T5, Human melanocortin (MC5) (Homo sapiens, UniProt P33032); test: Radioligand binding, human melanocortin MC5 membranes, FlashPlate, [125I]-NDP-αMSH; details: compound at 10 μM; [125I]-NDP-αMSH
T5 construct: purchased Perkin Elmer Biosignal
T5 sequence (P33032 whole entry): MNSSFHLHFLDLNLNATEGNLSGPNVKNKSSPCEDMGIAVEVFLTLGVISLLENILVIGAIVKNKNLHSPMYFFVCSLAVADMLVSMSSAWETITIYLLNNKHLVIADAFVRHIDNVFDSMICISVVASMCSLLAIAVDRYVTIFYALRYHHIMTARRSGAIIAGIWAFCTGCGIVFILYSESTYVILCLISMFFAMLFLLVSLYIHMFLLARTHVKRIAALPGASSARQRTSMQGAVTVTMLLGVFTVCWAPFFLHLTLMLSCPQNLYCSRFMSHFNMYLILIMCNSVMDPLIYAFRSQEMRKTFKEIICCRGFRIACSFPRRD
How it was run: as §1

[1] = target: T6, Human melanin-concentrating hormone (MCH1) (Homo sapiens, UniProt Q99705); test: Radioligand binding, human melanin-concentrating hormone MCH1 membranes, FlashPlate, [125I]-S36057; details: compound at 10 μM; [125I]-S36057
T6 construct: purchased Perkin Elmer Biosignal
T6 sequence (Q99705 whole entry): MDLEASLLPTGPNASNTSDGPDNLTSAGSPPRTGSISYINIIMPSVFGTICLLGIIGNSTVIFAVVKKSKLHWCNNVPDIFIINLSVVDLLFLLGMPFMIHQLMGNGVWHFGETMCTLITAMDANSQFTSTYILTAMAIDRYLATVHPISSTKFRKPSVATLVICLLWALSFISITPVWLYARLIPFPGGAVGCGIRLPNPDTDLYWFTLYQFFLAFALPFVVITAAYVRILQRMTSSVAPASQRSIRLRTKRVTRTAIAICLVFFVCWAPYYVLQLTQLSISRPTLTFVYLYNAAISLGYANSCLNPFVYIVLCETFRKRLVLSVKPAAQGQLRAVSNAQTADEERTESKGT
How it was run: as §1

Human μ-opioid (MOP) = target: T7, Human μ-opioid (MOP) (Homo sapiens, UniProt P35372); test: Radioligand binding, human μ-opioid (MOP) membranes, FlashPlate, [3H]-Naloxone; details: compound at 10 μM; [3H]-Naloxone
T7 construct: purchased Perkin Elmer Biosignal
T7 sequence (P35372 whole entry): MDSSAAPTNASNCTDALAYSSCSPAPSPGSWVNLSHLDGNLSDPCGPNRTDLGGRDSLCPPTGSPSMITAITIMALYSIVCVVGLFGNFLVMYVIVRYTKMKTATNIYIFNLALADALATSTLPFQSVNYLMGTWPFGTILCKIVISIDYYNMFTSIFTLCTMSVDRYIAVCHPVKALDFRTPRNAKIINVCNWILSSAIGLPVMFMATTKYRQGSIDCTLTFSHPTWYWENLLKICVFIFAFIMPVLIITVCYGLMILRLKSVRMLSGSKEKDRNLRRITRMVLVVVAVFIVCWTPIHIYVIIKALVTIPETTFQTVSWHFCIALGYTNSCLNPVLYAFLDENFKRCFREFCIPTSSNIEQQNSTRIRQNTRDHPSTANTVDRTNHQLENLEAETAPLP
How it was run: as §1

Human neurokinin (NK1) = target: T8, Human neurokinin (NK1) (Homo sapiens, UniProt P25103); test: Radioligand binding, human neurokinin NK1 membranes, filtration, [125I]-Substance P; details: compound at 10 μM; [125I]-Substance P
T8 construct: purchased Perkin Elmer Biosignal
T8 sequence (P25103 whole entry): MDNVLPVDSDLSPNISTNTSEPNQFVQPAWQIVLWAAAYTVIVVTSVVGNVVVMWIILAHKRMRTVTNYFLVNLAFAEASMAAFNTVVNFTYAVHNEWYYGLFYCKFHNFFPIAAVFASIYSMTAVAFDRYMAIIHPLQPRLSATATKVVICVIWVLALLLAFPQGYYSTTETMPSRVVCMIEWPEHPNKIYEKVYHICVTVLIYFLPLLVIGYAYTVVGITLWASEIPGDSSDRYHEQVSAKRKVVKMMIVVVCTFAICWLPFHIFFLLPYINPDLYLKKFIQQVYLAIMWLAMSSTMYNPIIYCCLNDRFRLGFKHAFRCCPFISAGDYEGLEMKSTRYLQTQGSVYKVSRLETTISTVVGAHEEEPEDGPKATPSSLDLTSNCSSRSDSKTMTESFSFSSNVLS
How it was run: as §2

[2] = target: T9, Human neuropeptide Y (NPY-Y1) (Homo sapiens, UniProt P25929); test: Radioligand binding, human neuropeptide Y NPY-Y1 membranes, FlashPlate, [125I]-PYY; details: compound at 10 μM; [125I]-PYY
T9 construct: purchased Perkin Elmer Biosignal
T9 sequence (P25929 1-384): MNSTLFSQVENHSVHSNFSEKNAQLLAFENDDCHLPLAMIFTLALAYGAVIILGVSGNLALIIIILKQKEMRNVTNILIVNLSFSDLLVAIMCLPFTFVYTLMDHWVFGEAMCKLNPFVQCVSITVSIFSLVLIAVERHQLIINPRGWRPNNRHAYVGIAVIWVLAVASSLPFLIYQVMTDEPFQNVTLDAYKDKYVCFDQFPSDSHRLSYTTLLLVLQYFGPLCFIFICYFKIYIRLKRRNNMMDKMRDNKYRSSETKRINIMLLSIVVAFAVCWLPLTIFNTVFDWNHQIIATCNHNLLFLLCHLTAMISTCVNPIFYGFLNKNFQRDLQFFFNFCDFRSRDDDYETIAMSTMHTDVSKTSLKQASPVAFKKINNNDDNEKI
How it was run: as §1

Human opioid (ORL1) = target: T10, Human opioid (ORL1) (Homo sapiens, UniProt P41146); test: Radioligand binding, human opioid ORL1 membranes, FlashPlate, [125I]-Nociceptin; details: compound at 10 μM; [125I]-Nociceptin
T10 construct: purchased Perkin Elmer Biosignal
T10 sequence (P41146 whole entry): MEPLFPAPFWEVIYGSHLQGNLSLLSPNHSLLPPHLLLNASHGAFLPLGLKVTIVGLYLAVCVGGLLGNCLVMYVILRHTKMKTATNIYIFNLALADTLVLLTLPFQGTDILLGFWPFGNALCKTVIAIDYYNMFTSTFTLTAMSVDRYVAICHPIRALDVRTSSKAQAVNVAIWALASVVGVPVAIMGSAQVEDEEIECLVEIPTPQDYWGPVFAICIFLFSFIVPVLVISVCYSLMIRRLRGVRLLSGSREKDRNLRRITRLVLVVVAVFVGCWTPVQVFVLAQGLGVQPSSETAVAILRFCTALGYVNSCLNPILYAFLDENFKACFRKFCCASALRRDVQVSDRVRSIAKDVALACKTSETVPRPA
How it was run: as §1

Mouse urotensin (mUR2) = target: T11, Mouse urotensin (mUR2) (Mus musculus, UniProt Q8VIH9); test: Radioligand binding, mouse urotensin mUR2 membranes, FlashPlate, [125I]-Urotensin II; details: compound at 10 μM; [125I]-Urotensin II
T11 construct: purchased Perkin Elmer Biosignal
T11 sequence (Q8VIH9 1-385): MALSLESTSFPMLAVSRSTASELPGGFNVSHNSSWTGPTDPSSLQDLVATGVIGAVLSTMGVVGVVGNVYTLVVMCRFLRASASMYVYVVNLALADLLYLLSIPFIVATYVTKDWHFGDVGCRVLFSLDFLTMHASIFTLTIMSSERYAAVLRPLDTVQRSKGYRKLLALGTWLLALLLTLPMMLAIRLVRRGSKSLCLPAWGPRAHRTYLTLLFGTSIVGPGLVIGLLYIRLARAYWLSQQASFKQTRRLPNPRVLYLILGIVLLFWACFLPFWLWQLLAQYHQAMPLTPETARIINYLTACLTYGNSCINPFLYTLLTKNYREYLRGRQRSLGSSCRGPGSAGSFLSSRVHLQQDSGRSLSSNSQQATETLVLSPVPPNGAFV
How it was run: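 Cloned mouse urotensin (mUR2) receptor membranes from Perkin Elmer Biosignal were immobilized in FlashPlate microplates using a proprietary coating. Each well got 19.5 μl buffer, then 0.5 μl of DMSO, reference ligand, or compound. Adding 5 μl of [125I]-Urotensin II, diluted to 5× final concentration in binding buffer, started binding. Plates were sealed with TopSeal-A and incubated 1 hour at room temperature in the dark. Wells were counted for 30 seconds each on a TopCount after a 60-second delay, and percentage inhibition was calculated.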

T1 sequence (P41143 whole entry): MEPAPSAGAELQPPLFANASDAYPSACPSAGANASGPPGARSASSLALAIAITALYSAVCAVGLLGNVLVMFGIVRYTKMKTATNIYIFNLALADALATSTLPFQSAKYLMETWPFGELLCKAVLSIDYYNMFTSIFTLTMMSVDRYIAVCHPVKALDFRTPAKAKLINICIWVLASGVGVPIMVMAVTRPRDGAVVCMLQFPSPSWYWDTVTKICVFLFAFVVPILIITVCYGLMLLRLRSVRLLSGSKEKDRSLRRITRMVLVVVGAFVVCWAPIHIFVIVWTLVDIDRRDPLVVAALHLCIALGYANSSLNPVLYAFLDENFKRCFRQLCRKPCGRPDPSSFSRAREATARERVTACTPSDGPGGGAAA

Compound	A1 radioligand binding, percentage inhibition (Human δ-opioid (DOP))	A2 radioligand binding, percentage inhibition (Human κ-Opioid (KOP))	A3 radioligand binding, percentage inhibition (Human Melanocortin (MC3))	A4 radioligand binding, percentage inhibition (Human Melanocortin (MC4))	A5 radioligand binding, percentage inhibition (Human melanocortin (MC5))	A6 radioligand binding, percentage inhibition [1]	A7 radioligand binding, percentage inhibition (Human μ-opioid (MOP))	A8 radioligand binding, percentage inhibition (Human neurokinin (NK1))	A9 radioligand binding, percentage inhibition [2]	A10 radioligand binding, percentage inhibition (Human opioid (ORL1))	A11 radioligand binding, percentage inhibition (Mouse urotensin (mUR2))
CO[C@H]1[C@H](O)[C@@H](COCc2ccc3ccccc3c2)OC(OCCc2ccccc2)[C@@H]1NC(=O)CCCN (stereo partly drawn) [compound 115]	− (“−” indicates less than 50% inhibition at 10 μM)	− (“−” indicates less than 50% inhibition at 10 μM)	− (“−” indicates less than 50% inhibition at 10 μM)	− (“−” indicates less than 50% inhibition at 10 μM)	− (“−” indicates less than 50% inhibition at 10 μM)	− (“−” indicates less than 50% inhibition at 10 μM)	− (“−” indicates less than 50% inhibition at 10 μM)	+ (“+” indicates greater than 50% inhibition at 10 μM)	− (“−” indicates less than 50% inhibition at 10 μM)	− (“−” indicates less than 50% inhibition at 10 μM)	− (“−” indicates less than 50% inhibition at 10 μM)
COCC1OC(OCc2ccccc2)C(NC(=O)CCNC(=N)N)C(OCc2ccc(-c3ccccc3)cc2)C1O (stereo not drawn) [compound 185]	− (“−” indicates less than 50% inhibition at 10 μM)	− (“−” indicates less than 50% inhibition at 10 μM)	− (“−” indicates less than 50% inhibition at 10 μM)	+ (“+” indicates greater than 50% inhibition at 10 μM)	+ (“+” indicates greater than 50% inhibition at 10 μM)	+ (“+” indicates greater than 50% inhibition at 10 μM)	− (“−” indicates less than 50% inhibition at 10 μM)	+ (“+” indicates greater than 50% inhibition at 10 μM)	− (“−” indicates less than 50% inhibition at 10 μM)	− (“−” indicates less than 50% inhibition at 10 μM)	− (“−” indicates less than 50% inhibition at 10 μM)
CO[C@H]1[C@H](O)[C@@H](COCc2cccc(O)c2)OC(OCc2ccc3ccccc3c2)[C@@H]1NC(=O)CNC(=N)N (stereo partly drawn) [compound 150]	− (“−” indicates less than 50% inhibition at 10 μM)	+ (“+” indicates greater than 50% inhibition at 10 μM)	− (“−” indicates less than 50% inhibition at 10 μM)	− (“−” indicates less than 50% inhibition at 10 μM)	+ (“+” indicates greater than 50% inhibition at 10 μM)	− (“−” indicates less than 50% inhibition at 10 μM)	+ (“+” indicates greater than 50% inhibition at 10 μM)	− (“−” indicates less than 50% inhibition at 10 μM)	− (“−” indicates less than 50% inhibition at 10 μM)	− (“−” indicates less than 50% inhibition at 10 μM)	− (“−” indicates less than 50% inhibition at 10 μM)
